Test results: patent US20140369943A1, “COMPOSITIONS COMPRISING ISOSORBIDE MONOESTERS AND HALOGENATED ANTIMICROBIAL ACTIVE COMPOUNDS” (CLARIANT INTERNATIONAL LTD., priority 2011, published 2014)
Entries after “also recorded” stand apart in the source; their conditions may differ. Like-named read-outs stand apart in the source and are kept apart here.

What was measured:
[1] = system: Pseudomonas oleovorans; assay: MIC determination in agar (antimicrobial efficacy); type: cell-based; settings: MIC of bronopol alone, CASO agar pH 7, corrected for dilution
Protocol: (§1) Below, the antimicrobial efficacy of a composition according to the invention consisting of 20% by weight of isorbide caprylate 1 and 80% by weight of a 10% by weight strength solution of 2-bromo-2-nitropropane-1,3-diol (bronopol) in water against bacteria, fungi and yeasts is examined (hereinbelow, the composition is referred to as “composition A”). For the tests with bacteria, composition A was diluted with butyl polyglycol and then, at 50° C., added to liquid CASO agar (casein-peptone agar) buffered to pH 7 (+1-0.2) in various concentrations (hereinbelow referred to as compositions B1, B2, etc.). For the tests with fungi and yeasts, composition A was diluted with butyl polyglycol and then added to liquid Sabouraud 4% dextrose agar buffered to pH 5.6 (+1-0.2) in various concentrations (hereinbelow referred to as compositions PH1, PH2, etc.). […]
(§2) The minimum inhibitory concentrations for the pure substances isosorbide caprylate 1 and bronopol were determined analogously.
(§3) The values determined for the minimum inhibitory concentrations “MIC mixture”, stated in Table 1 below, are based on the concentrations of composition A.
(§4) The values determined for the minimum inhibitory concentrations “QA” and “QB”, stated in Table 1 below, have already been corrected for the dilution effect of the water and the butyl polyglycol. […]

[2] = system: Staphylococcus aureus; assay: MIC determination in agar (antimicrobial efficacy); type: cell-based; settings: MIC of bronopol alone, CASO agar pH 7, corrected for dilution
Protocol: as §1, §2, §3, §4

[3] = system: Aspergillus brasiliensis; assay: MIC determination in agar (antimicrobial efficacy); type: cell-based; settings: MIC of bronopol alone, Sabouraud 4% dextrose agar pH 5.6, corrected for dilution
Protocol: (§5) Below, the antimicrobial efficacy of a composition according to the invention consisting of 20% by weight of isorbide caprylate 1 and 80% by weight of a 10% by weight strength solution of 2-bromo-2-nitropropane-1,3-diol (bronopol) in water against bacteria, fungi and yeasts is examined (hereinbelow, the composition is referred to as “composition A”). For the tests with bacteria, composition A was diluted with butyl polyglycol and then, at 50° C., added to liquid CASO agar (casein-peptone agar) buffered to pH 7 (+1-0.2) in various concentrations (hereinbelow referred to as compositions B1, B2, etc.). For the tests with fungi and yeasts, composition A was diluted with butyl polyglycol and then added to liquid Sabouraud 4% dextrose agar buffered to pH 5.6 (+1-0.2) in various concentrations (hereinbelow referred to as compositions PH1, PH2, etc.). The compositions B1, B2, etc. and PH1, PH2 etc. were each poured into Petri dishes and each inoculated with identical amounts of bacteria, fungi and yeasts. The minimum inhibitory concentration (MIC) is the concentration at which inhibition of the growth of the bacteria, fungi and yeasts in the compositions B1, B2, etc. and PH1, PH2, etc. occurs.
as §2, §3
(§6) The values determined for the minimum inhibitory concentrations “QA” and “QB”, stated in Table 1 below, have already been corrected for the dilution effect of the water and the butyl polyglycol.
(§7) Kull et al., Applied Microbiology 1961, 9, 538 using the formula below: […]
(§8) where • Qa is the minimum inhibitory concentration of isosorbide caprylate 1 in the mixture employed, • QA is the minimum inhibitory concentration of isosorbide caprylate 1, • Qb is the minimum inhibitory concentration of bronopol in the mixture employed and • QB is the minimum inhibitory concentration of bronopol.
(§9) The values for Qa and Qb are determined from the values for the mixtures (“MIC mixture”) by multiplying the minimum inhibitory concentrations determined for Qa with the factor 0.2 and for Qb with the factor 0.08, because of the proportions of the ingredients—20% by weight of isosorbide caprylate 1 and 8% by weight of bronopol—in composition A according to the invention examined.
(§10) If an SE value >1 is obtained, an antagonistic effect is present.

[4] = system: Klebsiella pneumoniae; assay: MIC determination in agar (antimicrobial efficacy); type: cell-based; settings: MIC of bronopol alone, CASO agar pH 7, corrected for dilution
Protocol: as §5, §2, §3, §6, §7, §8, §9, §10

[5] = system: Penicillium funicolosium; assay: MIC determination in agar (antimicrobial efficacy); type: cell-based; settings: MIC of bronopol alone, Sabouraud 4% dextrose agar pH 5.6, corrected for dilution
Protocol: as §5, §2, §3, §6, §7, §8, §9, §10

[6] = system: Enterobacter aerogenes; assay: MIC determination in agar (antimicrobial efficacy); type: cell-based; settings: MIC of bronopol alone, CASO agar pH 7, corrected for dilution
Protocol: as §5, §2, §3, §6, §7, §8, §9, §10

[7] = system: Proteus vulgaris; assay: MIC determination in agar (antimicrobial efficacy); type: cell-based; settings: MIC of bronopol alone, CASO agar pH 7, corrected for dilution
Protocol: as §5, §2, §3, §6, §7, §8, §9, §10

[8] = system: Candida albicans; assay: MIC determination in agar (antimicrobial efficacy); type: cell-based; settings: MIC of bronopol alone, Sabouraud 4% dextrose agar pH 5.6, corrected for dilution
Protocol: as §5, §2, §3, §6, §7, §8, §9, §10

[9] = system: Escherichia coli; assay: MIC determination in agar (antimicrobial efficacy); type: cell-based; settings: MIC of bronopol alone, CASO agar pH 7, corrected for dilution
Protocol: as §5, §2, §3, §6, §7, §8, §9, §10

[10] = system: Penicillium minioluteum; assay: MIC determination in agar (antimicrobial efficacy); type: cell-based; settings: MIC of bronopol alone, Sabouraud 4% dextrose agar pH 5.6, corrected for dilution
Protocol: as §5, §2, §3, §6, §7, §8, §9, §10

[11] = system: Fusarium solani; assay: MIC determination in agar (antimicrobial efficacy); type: cell-based; settings: MIC of bronopol alone, Sabouraud 4% dextrose agar pH 5.6, corrected for dilution
Protocol: as §5, §2, §3, §6, §7, §8, §9, §10

[12] = system: Aspergillus terreus; assay: MIC determination in agar (antimicrobial efficacy); type: cell-based; settings: MIC of bronopol alone, Sabouraud 4% dextrose agar pH 5.6, corrected for dilution
Protocol: as §5, §2, §3, §6, §7, §8, §9, §10

[13] = system: Citrobacter freundii; assay: MIC determination in agar (antimicrobial efficacy); type: cell-based; settings: MIC of bronopol alone, CASO agar pH 7, corrected for dilution
Protocol: as §5, §2, §3, §6, §7, §8, §9, §10

[14] = system: Pseudomonas aeruginosa; assay: MIC determination in agar (antimicrobial efficacy); type: cell-based; settings: MIC of bronopol alone, CASO agar pH 7, corrected for dilution
Protocol: as §5, §2, §3, §6, §7, §8, §9, §10

[15] = system: bacteria, fungi and yeasts; settings: general statement, no data given, cited from earlier work
[16] = system: bacteria, fungi and yeasts; assay: antimicrobial activity, overall statements in words; type: cell-based
Protocol: as §5

O=[N+]([O-])C(Br)(CO)CO [bronopol, 2-bromo-2-nitropropane-1,3-diol]
QB, meas. [1]: 50 ppm | QB, meas. [2]: 75 ppm | QB, meas. [3]: 500 ppm | QB, meas. [4]: 50 ppm | QB, meas. [5]: 150 ppm | QB, meas. [6]: 75 ppm | QB, meas. [7]: 50 ppm | QB, meas. [8]: 500 ppm | QB, meas. [9]: 50 ppm | QB, meas. [10]: 500 ppm | QB, meas. [11]: 500 ppm | QB, meas. [12]: 1000 ppm | QB, meas. [13]: 50 ppm | QB, meas. [14]: 75 ppm

CCCCCCCC(=O)O [caprylic acid]
antimicrobial activity ([15]; at a pH of 6 or above): no antimicrobial activity | antimicrobial efficacy [15]: antimicrobially effective | antimicrobial efficacy as constituent of isosorbide caprylate 1 ([16]; present in an amount of only 0.4% by weight): so low that it is negligible; also recorded: lack of antimicrobial activity

O[C@@H]1CO[C@H]2[C@@H]1OC[C@@H]2O [isosorbide]
antimicrobial activity ([16]; overall conclusion in words from Tables 1 and 2): neither isosorbide nor isosorbide dicaprylate are antimicrobially active; also recorded: lack of antimicrobial activity

isosorbide monocaprylate
antimicrobial activity ([16]; concluded from activity of isosorbide caprylate 1 and inactivity of its other constituents): significant antimicrobial activity
